Assay results taken from patent US11541130B2, “Systems and methods for nucleic acid expression in vivo” (DNARx, priority 2017, dated 2023).

Assays:
[1] = format: in vivo; conditions: mice
[2] = in vivo; cited from earlier work

## dexamethasone palmitate
[1]; ELISA 24 hrs after sequential injection (Example 18: also over time)
  Serum anti-CD20 mAb (Rituximab) level, in words: further increases gene expression in vivo

## Rituximab: anti-CD20 monoclonal antibody expressed in mice from plasmid vector containing Rituximab cDNA
[1]; after a single sequential IV injection, 1050 nmol DOTAP 2.5% DP, 75 ug plasmid
  Duration of serum anti-CD20 mAb (Rituximab) expression: over 275 days

B1: Neupogen: recombinant human G-CSF protein (protein, UniProt P09919 31-207, looked up)
Granulocyte …: TPLGPASSLPQSFLLKCLEQVRKIQGDGAALQEKLVSECATYKLCHPEELVLLGHSLGIPWAPLSSCPSQALQLAGCLSQLHSGLFLYQGLLQALEGISPELGPTLDTLQLDVADFATTIWQQMEELGMAPALQPTQGAMPAFASAFQRRAGGVLVASHLQSFLEVSYRVLRHLAQP
modifications: filgrastim
notes: recombinant human G-CSF protein
[2]
  Time for serum HG-CSF levels to return to baseline after each daily dose: approximately 14 hours
